{
  "source": "patent US20210238225A1",
  "about": "“PEPTIDOMIMETIC INHIBITORS OF THE PEPTIDYL-PROLYL CIS/TRANS ISOMERASE (PIN1)” (DANA-FARBER CANCER INSTITUTE, INC., priority 2018, published 2021)",
  "key": {"Pin1 Cys 113": {"molecular_target": "Pin1 Cys 113 (Homo sapiens, UniProt Q13526)", "sequence (Q13526 whole entry)": "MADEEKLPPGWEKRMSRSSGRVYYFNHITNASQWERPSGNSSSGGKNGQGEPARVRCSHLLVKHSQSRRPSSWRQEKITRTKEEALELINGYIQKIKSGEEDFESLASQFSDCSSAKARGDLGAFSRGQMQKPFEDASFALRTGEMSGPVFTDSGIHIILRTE", "assay": "Covalent labeling (intact MS)", "assay_type": "binding", "experimental": "5 μg of purified Pin1 protein in 50 μL of 20 mM HEPES pH 7.5 and 75 mM NaCl was incubated with 5 μM of respective Pin1 inhibitors for 0-3 hr. A Shimadzu XR HPLC was used to inject the entire sample onto a self-packed reverse-phase column (1/32 in outer diameter×500 μm inner diameter, 5 cm of POROS 50R2 resin). After desalting, protein was eluted with an HPLC gradient (0%-100% B in 4 min, A=0.2 M acetic acid in water, B=0.2 M acetic acid in acetonitrile, flow rate=10 μl/min) into a LTQ XL mass spectrometer (Thermo Fisher Scientific, San Jose, Calif., USA). LTQ XL MS spectra were acquired in centroid mode using the electron multipliers for ion detection. Mass spectra were deconvoluted using MagTran1.03b2 software (Zhang and Marshall, J. Am. Soc. Mass Spectrom. 9:225-233 (1998))."}, "Pin1 [1]": {"molecular_target": "T1, Pin1 (Homo sapiens, UniProt Q13526)", "T1 sequence (Q13526 whole entry)": "as above", "assay": "Cellular target engagement, live cell biotin competition assay in TNBC MDA-MB-231 cells", "assay_type": "cell-based", "parameters": "endogenous in cells; host or cells: MDA-MB-231", "experimental": "TNBC MDA-MB-231 cells were plated in 10 cm plates with 2.5 million cells per plate in 6 mL of media. The day after plating, cells were treated with the indicated concentrations of compound 18 for 5 hours. The cells were washed 2× with 0.9% NaCl (1 mL per 10 cm plate), and collected by scraping with a cell scraper. Cells were lysed in lysis buffer (50 mM Hepes pH 7.5, 150 mM NaCl, 1 mM EDTA, 10% v/v glycerol, 0.5% v/v […], protease inhibitors (Roche)) using 210 μL of cell lysis buffer per 10 cm plate of cells. After clarifying by centrifugation (14,000 rpm for 15 min at 4° C.), 5 μL of each lysate sample was combined with 5 μL of 2× LDS+10% β-mercaptoethanol, boiled for 5 minutes, and set aside for the input loading control (later to be loaded directly in the gel). Then, 200 μL of each lysate was then incubated with 1 μM of compound 2-32 (biotin probe compound) for 1 hour at 4° C. Lysates were then incubated with streptavidin agarose resin (30 μL of 1:1 beads: lysis buffer slurry) (Thermo Scientific™, cat. #20349) for 2 hours at 4° C. Beads were washed 4 times with 500 μL of washing buffer (50 mM Hepes, pH7.5, 10 mM NaCl, 1 mM EDTA, 10% glycerol), then pelleted by centrifugation and dried. The beads were then boiled at 95° C. for 5 minutes in 30 μL of 2× LDS+10% β-mercaptoethanol. Lysates were probed for specified proteins by western blotting using the Bolt system (Life Technologies™)."}, "[2]": {"system": "phosphoRb (S780), phosphoRb (S801/811), β-Catenin, cJun, cMyc and phosphoH3 (S10)", "assay": "Downstream signaling, western blot in TNBC MDA-MB-231 cells", "assay_type": "cell-based", "details": "10 μM, 1, 2, 4, 6 and 8 hours", "experimental": "TNBC MDA-MB-231 cells were plated in 6-well plates at a density of 100,000 cells per well in 2 mL media. The day after plating, cells were treated with the indicated concentration of compound 18, and harvested at 1, 2, 4, 6, and 8 hours. To harvest, the cells were washed with PBS, and then lysed in RIPA Lysis Buffer (Thermo Scientific™, cat. #89900, with protease inhibitors (Roche). Lysates were clarified by centrifugation (14,000 rpm for 15 min at 4° C.), and protein concentrations were determined by BCA. The samples were normalized and prepared in 4× LDS+10% β-mercaptoethanol, and were then boiled at 95° C. for 5 minutes. Lysates were probed for specified proteins by western blotting using the Bolt system (Life Technologies™)."}, "PATU-8988T cells": {"system": "PATU-8988T cells", "assay": "Time-dependent antiproliferative activity (CellTiter-Glo)", "assay_type": "cell-based", "details": "Day 0, 2, 4, 6 and 8", "experimental": "PATU-8988T cells were plated at a density of 100 cells per well in 100 μL media in a 96-well white clear bottom plate (Corning cat #3903), with at least one plate per time point (Day 0, 2, 4, 6 and 8). Cells were treated the day after plating with 1 μL of DMSO or Compound 18 to give the indicated concentrations, and were then incubated at 37° C. 5% CO2. Every 48 hours, the media was aspirated and replaced with fresh media containing fresh compound or DMSO. When the indicated time points had been reached, cell viability was evaluated using the CellTiter-Glo Luminescent Cell Viability Assay (Promega cat #G7570) according to the manufacturer's standards, measuring luminescence using an Envision plate-reader. The Day 0 time point plates were read the day after plating, prior to compound treatment. N=3 biological replicates were used for each treatment condition."}, "Pin1 [3]": {"molecular_target": "T1, Pin1", "assay": "Lysate target engagement (pull down with biotinylated probes; competition assay)", "assay_type": "binding", "parameters": "endogenous in cells; host or cells: MDA-MB-231", "summary_of_the_method": "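MDA-MB-231 (TNBC) lysates, 500 μg protein, incubated 1 h at 4 °C with compound, then streptavidin pull-down 2 h at 4 °C; western blot read-out. Competition format: lysate pre-incubated overnight at 4 °C with competitor, then 1 μM desthiobiotin probe for 1 h before pull-down.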"}, "Pin1 (GST-Pin1)": {"molecular_target": "Pin1 (GST-Pin1) (Homo sapiens, UniProt Q13526)", "sequence (Q13526 whole entry)": "as above", "assay": "Fluorescence polarization (FP) assay, binding to Pin1"}},
  "note": "Entries after “also recorded” stand apart in the source; their conditions may differ. Read-outs that look alike come from different tables or passages of the source. Non-standard residues stand in square brackets, D forms with d. Residues, ends and D or L forms follow the SMILES beside them. *: point of attachment. NMeF = CN[C@@H](Cc1ccccc1)C(=O)O; Cit = NC(=O)NCCC[C@H](N)C(=O)O; Pip = O=C(O)[C@@H]1CCCCN1; ClAc = O=C(CCl)*",
  "data": [
    {"smiles": "CCOC(=O)[C@H](CCCNC(N)=O)NC(=O)[C@H](Cc1c[nH]c2ccccc12)NC(=O)[C@@H]1CCCCN1C(=O)[C@H](Cc1ccccc1)N(C)C(=O)CCl", "note": "[Compound 18, Ethyl (S)-2-((S)-2-((S)-1-(N-(2-chloroacetyl)-N-methyl-L-phenylalanyl)piperidine-2-carboxamido)-3-(1H-indol-3-yl)propanamido)-5-ureidopentanoate] (ClAc-[NMeF][Pip]W[Cit]-OEt)", "values": [
      {"measurement": "covalent labeling of Pin1", "setting": "Pin1 Cys 113; 30-minute room temperature incubation at 1:1 Pin1:compound", "value": 100, "unit": "%"},
      {"measurement": "Covalent? (In tact MS), % labeling", "setting": "Pin1 Cys 113; purified Pin1 with 5 μM inhibitor, 0-3 hr", "value": "Yes (100%"},
      {"measurement": "concentration at which cellular Pin1 is fully engaged (FIG. 7B)", "setting": "Pin1 [1]; TNBC MDA-MB-231 cells, 5 hours", "value": "≤ 5", "unit": "µM"},
      {"measurement": "Cellular Target Engagement?", "setting": "Pin1 [1]; TNBC MDA-MB-231 cells, 5 hours treatment, concentration under E7", "value": "Yes-Complete"},
      {"measurement": "Cellular Target Engagement? concentration stated for complete engagement", "setting": "Pin1 [1]; TNBC MDA-MB-231 cells, read with the E6 line", "value": "at 5 μM"},
      {"measurement": "live cell competition with compound 2-32 (FIG. 7B legend)", "setting": "Pin1 [1]; preincubation of live TNBC-MDA-MB-231 cells with increasing concentrations", "value": "outcompetes compound 2-32 for Pin1 binding"},
      {"measurement": "downstream signaling changes (FIG. 9)", "setting": "[2]", "value": "a decrease in phosphoRb, β-Catenin, cJun, phosphoH3 (S10), and a temporary increase in c-Myc; also recorded: induced changes in downstream signaling"},
      {"measurement": "cell viability (FIG. 10)", "setting": "PATU-8988T cells", "value": "dose-dependent and time-dependent defects in cell viability"},
      {"measurement": "competition with compound 2c for Pin1 (FIG. 6B legend)", "setting": "Pin1 [3]; HEK 293 cell lysate as printed in legend", "value": "competes with compound 2c for binding of Pin1"},
      {"measurement": "lysate target engagement by competition with 1 μM compound 2c (FIG. 6B)", "setting": "Pin1 [3]; TNBC-MDA-MB-231 cell lysate, pre-incubation overnight at 4° C.", "value": "potently engaged Pin1"},
      {"measurement": "Lysate Target Engagement?", "setting": "Pin1 [3]; TNBC-MDA-MB-231 lysate, biotin/dtb probes: pull down, others: competition, concentration under E5", "value": "Yes-"},
      {"measurement": "Lysate Target Engagement? concentration stated for the engagement or pull down", "setting": "Pin1 [3]; read with the E4 line of the same compound (complete, partial, probe pull down)", "value": 500, "unit": "µM"},
      {"measurement": "Ki", "setting": "Pin1 (GST-Pin1); read-out: Ki quoted in figure legend, assay not named", "value": 20, "unit": "nM"},
      {"measurement": "Ki", "setting": "Pin1 (GST-Pin1); text and figure legend, read-out: Ki (fluorescence polarization, FIG. 1B)", "value": 20, "unit": "nM"}
    ]}
  ]
}
